Publication PMC7937321 (Genes and Environment, 2021)
Read-outs that look alike come from different tables or passages of the source.

Legend:
[1] = tested on: human lymphoblastoid TK6 cells, thymidine kinase gene
Procedure: (§1) In principle, this collaborative study conducted the treatment of test substances, the dose finding, and the main test of TK6 assays, according to the OECD Guideline TG490 [17]. […] Briefly, test substances were dissolved in an appropriate solvent (DMSO or ethanol) and then serially diluted to prepare final concentrations. […] The 4 h and 24 h treatments were conducted by shaking and static exposures, respectively. After treatment with test substances, cells were centrifuged (1000 rpm, 5 min), supernatants were removed, and cells were washed with a serum-free medium or Hank’s Balanced Salt Solution. After centrifugation (1000 rpm, 5 min) to remove the supernatant, cells (2 × 10^7 cells) were dispersed in an RPMI medium containing 10% serum, and cell concentration was measured. Treated cells were cultured at 37 °C with 5% CO2 condition and used for TK6 assays. At that time, to calculate the cloning efficiency (CE) (Eq. 1), the cells were cultured in a 96-well microplate at a concentration of about 1.6 cells/well for 2 weeks.
(§2) The TK6 assay is conducted between 20 and 10% RS0 as a maximum dose if cytotoxicity is observed. If no precipitate or limiting cytotoxicity was observed, the maximum dose was the lowest concentration among 10 mM, 2 mg/mL, or 2 μL/mL of the test substance. When the main TK6 assay was difficult to conduct under the condition of RS0 values from 20 to 10%, the test was conducted between 20 and 10% relative total growth (RTG), described later, as a maximum dose.
(§3) On the third day of culture, CE3 plates for determining plating efficiency and mutant frequency (MF) plates for mutation detection were prepared. CE3 plates were seeded in 96-well microplates at a concentration of about 1.6 cells/well. The MF plates were seeded in 96-well microplates at 40,000 cells/well in the presence of 3 μg/mL of trifluorothymidine (Sigma Aldrich).
(§4) Mutant colonies in MF plates were calculated using Eq. 7 using the Poisson distribution. EW was the number of wells without colonies, and TW was the total number of wells. N was the average number of cells per well (N = 40,000 in this study). The data were statistically analyzed by Omori’s method, a modified Dunnett’s procedure for identifying clear negatives, a Simpson–Margolin procedure for detecting downturn data, and a trend test to evaluate the dose dependency [42, 43]. The acceptability criterion for the test was that the MF value of the positive control group of each laboratory was increased with statistical significance compared with that of the concurrent negative control group.

TK6 cells [2] = details: human
rodent = details: cited from earlier work; for Carcinogenicity Studies: rodent, ref [20]-[41], Table 2
[3] = tested on: L5178Y mouse lymphoma cells; details: cited from earlier work; for MLA (TK gene locus), With S9 / MLA (TK gene locus), Without S9: [46]-[53], Table 3
TK6 cells [4] = assay: Cytotoxicity in the TK6 assay (CE, RS, RSG, RTG); details: for CE0 / RS0 / Adjusted CE0 / Adjusted CE0(%) / CE0 (%) / RS0 (%): Day 0
[5] = tested on: TA1538, TA100, TA98, TA97, TA1535; details: cited from earlier work; for Bacterial reverse mutation assay, With S9 / Bacterial reverse mutation assay, Without S9: ref [18]-[40], Table 2
[6] = tested on: human lymphoblastoid TK6 cells, thymidine kinase gene; assay: TK gene mutation assay (TK6 assay, OECD TG490)
Procedure: as §1, §2, §3, §4

[7] = Short treatment, +S9 mix, 24.1 μg/mL
[8] = Short treatment, +S9 mix, 48.1 μg/mL
[9] = Short treatment, +S9 mix, 96 μg/mL
[10] = Short treatment, +S9 mix, 770 μg/mL
[11] = Short treatment, -S9 mix, 24.10 μg/mL
[12] = Short treatment, -S9 mix, 48.10 μg/mL
[13] = Short treatment, -S9 mix, 96.30 μg/mL
[14] = dose 6.02 μg/mL, 24h treatment, -S9 mix
[15] = dose 24.10 μg/mL, 24h treatment, -S9 mix
[16] = dose 24.1 μg/mL, short treatment, +S9 mix
[17] = dose 48.1 μg/mL, 24h treatment, -S9 mix
[18] = dose 48.1 μg/mL, short treatment, +S9 mix
[19] = dose 96 μg/mL, short treatment, +S9 mix
[20] = dose 96.3 μg/mL, 24h treatment, -S9 mix
[21] = Long-term treatment without metabolic activation
[22] = Short-term treatment with metabolic activation
[23] = Short-term treatment without metabolic activation

SMILES: Cc1cc(N)ccc1N [2,5-Diaminotoluene]
- TK6 assay overall judgment [1]: negative
- TK mutation assay, Long term [1]: Neg
- TK mutation assay, With S9 [1]: Neg
- TK mutation assay, Without S9 [1]: Neg
- CE3 (cell viability on Day 3) (TK6 cells [2]): 92.1%
- cytotoxicity (TK6 cells [2]): About 80%
- Carcinogenicity Studies (rodent): Neg
- MLA result ([3]; NTP database, ref [54]): positive
- MLA result ([3]; reported by SCCS, ref [46]): negative
- MLA (TK gene locus), With S9 ([3]; ref [27]): Inconclusive^c
- MLA (TK gene locus), Without S9 ([3]; ref [27]): Inconclusive^c

SMILES: Nc1ccc([N+](=O)[O-])cc1N [4-Nitro-o-phenylenediamine]
- CE0 (TK6 cells [4]; [7]): 81.6%
- RS0 (TK6 cells [4]; [7]): 97.0%
- CE3 (TK6 cells [4]; Short treatment, +S9 mix, 24.1 μg/mL, Day 3): 92.1%
- Daily cell growth Day 1×2×3 (TK6 cells [4]; [8]): 13.43
- RSG (TK6 cells [4]; [8]): 0.703
- Adjusted CE0 (TK6 cells [4]; [8]): 81.2%
- CE0 (TK6 cells [4]; [8]): 84.1%
- RS0 (TK6 cells [4]; [8]): 101.5%
- CE3 (TK6 cells [4]; Short treatment, +S9 mix, 48.1 μg/mL, Day 3): 84.1%
- Daily cell growth Day 1×2×3 (TK6 cells [4]; [9]): 13.64
- RSG (TK6 cells [4]; [9]): 0.714
- Adjusted CE0 (TK6 cells [4]; [9]): 62.7%
- CE0 (TK6 cells [4]; [9]): 66.7%
- RS0 (TK6 cells [4]; [9]): 78.3%
- CE3 (TK6 cells [4]; Short treatment, +S9 mix, 96 μg/mL, Day 3): 72.7%
- Daily cell growth Day 1×2×3 (TK6 cells [4]; [10]): 1.65
- RSG (TK6 cells [4]; [10]): 0.086
- Adjusted CE0 (TK6 cells [4]; [10]): 29.1%
- CE0 (TK6 cells [4]; [10]): 42.0%
- RS0 (TK6 cells [4]; [10]): 36.3%
- CE3 (TK6 cells [4]; [11]): 1.160
- RS (TK6 cells [4]; [11]): 79.4
- CE0 (TK6 cells [4]; [11]): 74.8%
- RS0 (TK6 cells [4]; [11]): 79.4%
- CE3 (TK6 cells [4]; Short treatment, -S9 mix, 24.10 μg/mL, Day 3): 116.0%
- CE3 (TK6 cells [4]; [12]): 0.866
- Daily cell growth Day 1×2×3 (TK6 cells [4]; [12]): 13.83
- RS (TK6 cells [4]; [12]): 65.5
- RSG (TK6 cells [4]; [12]): 0.667
- Adjusted CE0 (TK6 cells [4]; [12]): 56.8%
- CE0 (TK6 cells [4]; [12]): 61.3%
- RS0 (TK6 cells [4]; [12]): 65.5%
- CE3 (TK6 cells [4]; Short treatment, -S9 mix, 48.10 μg/mL, Day 3): 86.6%
- CE3 (TK6 cells [4]; [13]): 0.950
- Daily cell growth Day 1×2×3 (TK6 cells [4]; [13]): 13.07
- RS (TK6 cells [4]; [13]): 64.6
- RSG (TK6 cells [4]; [13]): 0.630
- Adjusted CE0 (TK6 cells [4]; [13]): 56.1%
- CE0 (TK6 cells [4]; [13]): 63.1%
- RS0 (TK6 cells [4]; [13]): 64.6%
- CE3 (TK6 cells [4]; Short treatment, -S9 mix, 96.30 μg/mL, Day 3): 95.0%
- CE3 (TK6 cells [4]; [14]): 0.866
- Daily cell growth Day 1×2×3 (TK6 cells [4]; [14]): 17.46
- RSG (TK6 cells [4]; [14]): 0.993
- Adjusted CE0(%) (TK6 cells [4]; [14]): 178.3%
- CE0 (%) (TK6 cells [4]; [14]): 81.6%
- RS0 (%) (TK6 cells [4]; [14]): 79.6%
- CE3 (%) (TK6 cells [4]; dose 6.02 μg/mL, 24h treatment, -S9 mix, Day 3): 86.6%
- CE3 (TK6 cells [4]; [15]): 1.012
- CE0 (%) (TK6 cells [4]; [15]): 95.0%
- RS0 (%) (TK6 cells [4]; [15]): 73.2%
- CE3 (%) (TK6 cells [4]; dose 24.10 μg/mL, 24h treatment, -S9 mix, Day 3): 101.2%
- CE3 (TK6 cells [4]; [16]): 0.921
- RS (TK6 cells [4]; [16]): 97.0
- CE3 (TK6 cells [4]; [17]): 0.950
- Daily cell growth Day 1×2×3 (TK6 cells [4]; [17]): 11.59
- RSG (TK6 cells [4]; [17]): 0.659
- Adjusted CE0(%) (TK6 cells [4]; [17]): 99.3%
- CE0 (%) (TK6 cells [4]; [17]): 74.8%
- RS0 (%) (TK6 cells [4]; [17]): 44.3%
- CE3 (%) (TK6 cells [4]; dose 48.1 μg/mL, 24h treatment, -S9 mix, Day 3): 95.0%
- CE3 (TK6 cells [4]; [18]): 0.841
- RS (TK6 cells [4]; [18]): 101.5
- CE3 (TK6 cells [4]; [19]): 0.727
- RS (TK6 cells [4]; [19]): 78.3
- CE3 (TK6 cells [4]; [20]): 0.866
- Daily cell growth Day 1×2×3 (TK6 cells [4]; [20]): 9.04
- RSG (TK6 cells [4]; [20]): 0.514
- Adjusted CE0(%) (TK6 cells [4]; [20]): 55.5%
- CE0 (%) (TK6 cells [4]; [20]): 59.6%
- RS0 (%) (TK6 cells [4]; [20]): 24.8%
- CE3 (%) (TK6 cells [4]; dose 96.3 μg/mL, 24h treatment, -S9 mix, Day 3): 86.6%
- RS (TK6 cells [4]; dose 770 μg/mL, short treatment, +S9 mix): 36.3
- Carcinogenicity Studies (rodent): Neg
- The Highest Specific Activity and the Strain ([5]; TA100 without S9, ref Table 2): 41,400 revertants/mg in TA100 without S9
- specific activity values obtained from Ames test ([5]; ref Table 2): exceeding 10,000 revertants per milligram
- Bacterial reverse mutation assay, With S9 [5]: Pos
- Bacterial reverse mutation assay, Without S9 [5]: Pos
- MLA (TK gene locus), With S9 ([3]; ref [27]): Pos
- MLA (TK gene locus), Without S9 ([3]; ref [27]): Pos
- TK6 assay result (mutant frequency increase, judgment) ([6]; 4h treatment (-S9)): increased significantly
- TK mutation assay, Long term ([6]; 24 h, without S9): Pos
- TK6 assay result (mutant frequency increase, judgment) ([6]; 24h treatment (-S9)): increased significantly
- Dunnett type test, test statistic [6, 21]: 3.866
- Trend test, test statistic [6, 21]: 2.800
- %SG [6, 11]: 54.1%
- MF [6, 11]: 14.5
- %SG [6, 12]: 55.8%
- MF [6, 12]: 17.4
- Mut. freq. N-MF [6, 12]: 7.7 ×10-6
- Mut. freq. S-MF [6, 12]: 9.7 ×10-6
- Mut. freq. T-MF [6, 12]: 17.4 ×10-6
- %SG [6, 13]: 62.6%
- MF [6, 13]: 16.9
- Mut. freq. N-MF [6, 13]: 6.3 ×10-6
- Mut. freq. S-MF [6, 13]: 10.6 ×10-6
- Mut. freq. T-MF [6, 13]: 16.9 ×10-6
- Dunnett type test, test statistic [6, 22]: 3.458
- Trend test, test statistic [6, 22]: 1.593
- Dunnett type test, test statistic [6, 23]: 2.435
- Trend test, test statistic [6, 23]: 2.615
- TK6 assay overall judgment ([6]; all treatments): positive
- %SG [6, 14]: 39.7%
- Mut. freq. (×10-6) N-MF [6, 14]: 11.7 ×10-6
- Mut. freq. (×10-6) S-MF [6, 14]: 7.7 ×10-6
- Mut. freq. (×10-6) T-MF [6, 14]: 19.4 ×10-6
- %SG [6, 15]: 59.9%
- %SG [6, 16]: 62.7%
- %SG [6, 17]: 78.5%
- Mut. freq. (×10-6) N-MF [6, 17]: 3.0 ×10-6
- Mut. freq. (×10-6) S-MF [6, 17]: 11.1 ×10-6
- Mut. freq. (×10-6) T-MF [6, 17]: 14.2 ×10-6
- %SG [6, 18]: 65.0%
- Mut. freq. (×10-6) N-MF [6, 18]: 7.5 ×10-6
- Mut. freq. (×10-6) S-MF [6, 18]: 14.0 ×10-6
- Mut. freq. (×10-6) T-MF [6, 18]: 21.6 ×10-6
- %SG [6, 19]: 70.4%
- Mut. freq. (×10-6) N-MF [6, 19]: 5.2 ×10-6
- Mut. freq. (×10-6) S-MF [6, 19]: 12.4 ×10-6
- Mut. freq. (×10-6) T-MF [6, 19]: 17.6 ×10-6
- %SG [6, 20]: 76.1%
- Mut. freq. (×10-6) N-MF [6, 20]: 5.6 ×10-6
- Mut. freq. (×10-6) S-MF [6, 20]: 17.9 ×10-6
- Mut. freq. (×10-6) T-MF [6, 20]: 23.5 ×10-6
- TK mutation assay, With S9 ([6]; short-term 4 h, with rat liver S9): Neg
- TK mutation assay, Without S9 ([6]; short-term 4 h, without S9): Pos

SMILES: O=[N+]([O-])c1cc(N(CCO)CCO)ccc1NCCO [HC Blue No.2]
- TK mutation assay, Long term [1]: Pos
- TK mutation assay, With S9 [1]: Neg
- TK mutation assay, Without S9 [1]: Neg
- Trend test, test statistic [1]: 2.719
- carcinogenicity classification (rodent; ref [84]): non-carcinogenic
- Carcinogenicity Studies (rodent): Neg
- The Highest Specific Activity and the Strain ([5]; TA98 with S9, ref Table 2): 153.6 revertants/mg in TA98 with S9
- Bacterial reverse mutation assay, With S9 [5]: Pos
- Bacterial reverse mutation assay, Without S9 [5]: Pos
- MLA (4 h) ([3]; presence of S9, ref [27], [29], [68]): positive
- MLA (−S9) ([3]; substance with high purity, −S9, ref [27]): positive
- MLA (TK gene locus), With S9 ([3]; ref [27]): Pos
- MLA (TK gene locus), Without S9 ([3]; ref [27]): Pos
